Source: ChEMBL document CHEMBL3217507, “3,3-Dimethyl-1H-pyrrolo[3,2-g]quinolin-2(3H)-one derivatives as novel Raf kinase inhibitors” (Medchemcomm, 2013)

What was measured:
[1] = Cytotoxicity against human KCC-853 cells after 72 hrs by MTT assay; format: functional, cell-based; conditions: KCC-853, 72 h
[2] = tested on: A549; experiment: Cytotoxicity against human A549 cells after 72 hrs by MTT assay; format: functional, cell-based; conditions: A549, 72 h
[3] = tested on: HepG2; experiment: Cytotoxicity against human HepG2 cells after 72 hrs by MTT assay; format: functional, cell-based; conditions: HepG2, 72 h
[4] = biological target: RAF proto-oncogene serine/threonine-protein kinase (Homo sapiens) (UniProt P04049); experiment: Inhibition of c-RAF (unknown origin) using [33P]ATP by […] assay
[5] = biological target: Hepatocyte growth factor receptor (Homo sapiens) (UniProt P08581); experiment: Inhibition of c-MET (unknown origin) at 10 uM
[6] = biological target: Mast/stem cell growth factor receptor Kit (Homo sapiens) (UniProt P10721); experiment: Inhibition of c-Kit (unknown origin) at 10 uM
[7] = biological target: RAC-alpha serine/threonine-protein kinase (Homo sapiens) (UniProt P31749); experiment: Inhibition of AKT1 (unknown origin) at 10 uM
[8] = biological target: Tyrosine-protein kinase ABL1 (Homo sapiens) (UniProt P00519); experiment: Inhibition of ABL1 (unknown origin) at 10 uM
[9] = biological target: Vascular endothelial growth factor receptor 2 (Homo sapiens) (UniProt P35968); experiment: Inhibition of VEGFR2 (unknown origin) at 10 uM
[10] = biological target: Tyrosine-protein kinase SYK (Homo sapiens) (UniProt P43405); experiment: Inhibition of SYK (unknown origin) at 10 uM
[11] = biological target: Angiopoietin-1 receptor (Homo sapiens) (UniProt Q02763); experiment: Inhibition of TIE2 (unknown origin) at 10 uM
[12] = biological target: Vascular endothelial growth factor receptor 2 (Homo sapiens) (UniProt P35968); experiment: Inhibition of KDR (unknown origin) at 10 uM
[13] = biological target: Serine/threonine-protein kinase PLK1 (Homo sapiens) (UniProt P53350); experiment: Inhibition of PLK1 (unknown origin) at 10 uM
[14] = species on record: Homo sapiens; experiment: Inhibition of PKA (unknown origin) at 10 uM
[15] = biological target: Platelet-derived growth factor receptor alpha (Homo sapiens) (UniProt P16234); experiment: Inhibition of PDGFR-alpha (unknown origin) at 10 uM
[16] = biological target: Focal adhesion kinase 1 (Homo sapiens) (UniProt Q05397); experiment: Inhibition of PTK2 (unknown origin) at 10 uM
[17] = biological target: Tyrosine-protein kinase JAK2 (Homo sapiens) (UniProt O60674); experiment: Inhibition of JAK2 (unknown origin) at 10 uM
[18] = biological target: Inhibitor of nuclear factor kappa-B kinase subunit beta (Homo sapiens) (UniProt O14920); experiment: Inhibition of IKKbeta (unknown origin) at 10 uM
[19] = biological target: Fibroblast growth factor receptor 1 (Homo sapiens) (UniProt P11362); experiment: Inhibition of FGFR1 (unknown origin) at 10 uM
[20] = biological target: Tyrosine-protein kinase Fyn (Homo sapiens) (UniProt P06241); experiment: Inhibition of FYN (unknown origin) at 10 uM
[21] = biological target: Macrophage colony-stimulating factor 1 receptor (Homo sapiens) (UniProt P07333); experiment: Inhibition of FMS (unknown origin) at 10 uM
[22] = biological target: Receptor-type tyrosine-protein kinase FLT3 (Homo sapiens) (UniProt P36888); experiment: Inhibition of FLT3 (unknown origin) at 10 uM
[23] = biological target: Cyclin-dependent kinase 2 (Homo sapiens) (UniProt P24941); experiment: Inhibition of CDK2 (unknown origin) at 10 uM
[24] = biological target: RAF proto-oncogene serine/threonine-protein kinase (Homo sapiens) (UniProt P04049); experiment: Inhibition of c-RAF (unknown origin) at 10 uM

RAF proto-oncogene serine/threonine-protein kinase (Homo sapiens), sequence (P04049 whole entry): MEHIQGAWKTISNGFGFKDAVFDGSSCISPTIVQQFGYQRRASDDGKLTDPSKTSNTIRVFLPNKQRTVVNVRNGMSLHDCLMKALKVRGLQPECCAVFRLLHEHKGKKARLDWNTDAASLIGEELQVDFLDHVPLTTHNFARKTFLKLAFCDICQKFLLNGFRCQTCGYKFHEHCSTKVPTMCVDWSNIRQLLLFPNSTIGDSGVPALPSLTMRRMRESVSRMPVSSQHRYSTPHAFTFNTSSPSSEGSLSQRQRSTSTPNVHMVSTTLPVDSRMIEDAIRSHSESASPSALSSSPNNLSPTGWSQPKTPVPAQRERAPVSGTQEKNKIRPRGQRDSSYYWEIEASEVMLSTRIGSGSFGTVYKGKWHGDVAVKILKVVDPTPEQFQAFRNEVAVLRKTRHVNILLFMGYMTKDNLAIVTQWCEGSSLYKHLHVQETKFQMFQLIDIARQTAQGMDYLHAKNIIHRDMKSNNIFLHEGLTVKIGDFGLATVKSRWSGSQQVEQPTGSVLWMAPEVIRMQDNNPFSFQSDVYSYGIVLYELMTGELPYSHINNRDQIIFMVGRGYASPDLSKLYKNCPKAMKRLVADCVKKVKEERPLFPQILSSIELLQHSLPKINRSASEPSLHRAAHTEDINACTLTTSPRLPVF
Vascular endothelial growth factor receptor 2 (Homo sapiens), sequence (P35968 whole entry): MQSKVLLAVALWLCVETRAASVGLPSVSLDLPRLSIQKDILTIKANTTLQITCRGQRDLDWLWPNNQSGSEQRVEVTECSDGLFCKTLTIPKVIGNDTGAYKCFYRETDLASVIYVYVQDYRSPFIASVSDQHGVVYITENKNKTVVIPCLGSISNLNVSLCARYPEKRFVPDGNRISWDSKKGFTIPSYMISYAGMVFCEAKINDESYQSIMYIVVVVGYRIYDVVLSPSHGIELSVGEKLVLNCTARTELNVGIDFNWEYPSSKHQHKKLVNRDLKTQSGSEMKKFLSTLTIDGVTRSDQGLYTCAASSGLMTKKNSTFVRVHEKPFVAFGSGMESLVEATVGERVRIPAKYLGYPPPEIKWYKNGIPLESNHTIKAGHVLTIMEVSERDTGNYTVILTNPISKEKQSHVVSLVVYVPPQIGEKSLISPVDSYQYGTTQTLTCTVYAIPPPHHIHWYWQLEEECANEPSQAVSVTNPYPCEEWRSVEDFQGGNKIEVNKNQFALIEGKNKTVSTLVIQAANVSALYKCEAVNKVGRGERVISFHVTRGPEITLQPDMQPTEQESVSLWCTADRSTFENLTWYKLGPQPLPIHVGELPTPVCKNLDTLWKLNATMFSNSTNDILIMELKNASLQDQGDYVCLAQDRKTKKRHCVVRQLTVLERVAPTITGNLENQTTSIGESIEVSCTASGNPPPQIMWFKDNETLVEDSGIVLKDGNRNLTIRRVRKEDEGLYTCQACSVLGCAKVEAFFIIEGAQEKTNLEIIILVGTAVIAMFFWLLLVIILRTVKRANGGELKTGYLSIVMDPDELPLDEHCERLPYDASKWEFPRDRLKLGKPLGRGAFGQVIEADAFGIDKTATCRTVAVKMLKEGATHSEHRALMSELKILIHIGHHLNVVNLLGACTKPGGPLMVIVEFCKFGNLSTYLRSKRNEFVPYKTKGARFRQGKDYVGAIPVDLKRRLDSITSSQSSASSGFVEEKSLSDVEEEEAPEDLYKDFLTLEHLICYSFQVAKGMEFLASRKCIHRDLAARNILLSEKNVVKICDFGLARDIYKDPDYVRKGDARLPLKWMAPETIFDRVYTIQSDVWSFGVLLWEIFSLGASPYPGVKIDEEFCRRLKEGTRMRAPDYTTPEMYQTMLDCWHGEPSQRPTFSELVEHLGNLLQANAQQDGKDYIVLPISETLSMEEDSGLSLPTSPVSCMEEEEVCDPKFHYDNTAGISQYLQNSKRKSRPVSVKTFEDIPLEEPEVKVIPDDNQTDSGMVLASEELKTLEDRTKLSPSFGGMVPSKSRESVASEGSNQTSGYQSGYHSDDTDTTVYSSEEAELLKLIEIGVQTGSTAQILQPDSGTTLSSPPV
RAC-alpha serine/threonine-protein kinase (Homo sapiens), sequence (P31749 whole entry): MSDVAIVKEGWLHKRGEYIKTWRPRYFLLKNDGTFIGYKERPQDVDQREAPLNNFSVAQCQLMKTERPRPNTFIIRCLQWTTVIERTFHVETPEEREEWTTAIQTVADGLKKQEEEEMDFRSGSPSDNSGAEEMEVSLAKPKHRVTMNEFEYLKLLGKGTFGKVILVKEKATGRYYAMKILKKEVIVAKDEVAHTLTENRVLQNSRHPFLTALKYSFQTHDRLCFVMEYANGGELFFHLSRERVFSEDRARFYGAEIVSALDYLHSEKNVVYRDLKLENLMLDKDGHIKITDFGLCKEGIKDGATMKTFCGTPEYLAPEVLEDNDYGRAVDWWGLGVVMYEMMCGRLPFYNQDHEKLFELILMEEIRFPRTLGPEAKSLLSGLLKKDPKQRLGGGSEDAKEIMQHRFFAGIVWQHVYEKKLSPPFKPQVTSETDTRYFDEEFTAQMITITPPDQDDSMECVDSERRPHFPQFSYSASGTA
Macrophage colony-stimulating factor 1 receptor (Homo sapiens), sequence (P07333 whole entry): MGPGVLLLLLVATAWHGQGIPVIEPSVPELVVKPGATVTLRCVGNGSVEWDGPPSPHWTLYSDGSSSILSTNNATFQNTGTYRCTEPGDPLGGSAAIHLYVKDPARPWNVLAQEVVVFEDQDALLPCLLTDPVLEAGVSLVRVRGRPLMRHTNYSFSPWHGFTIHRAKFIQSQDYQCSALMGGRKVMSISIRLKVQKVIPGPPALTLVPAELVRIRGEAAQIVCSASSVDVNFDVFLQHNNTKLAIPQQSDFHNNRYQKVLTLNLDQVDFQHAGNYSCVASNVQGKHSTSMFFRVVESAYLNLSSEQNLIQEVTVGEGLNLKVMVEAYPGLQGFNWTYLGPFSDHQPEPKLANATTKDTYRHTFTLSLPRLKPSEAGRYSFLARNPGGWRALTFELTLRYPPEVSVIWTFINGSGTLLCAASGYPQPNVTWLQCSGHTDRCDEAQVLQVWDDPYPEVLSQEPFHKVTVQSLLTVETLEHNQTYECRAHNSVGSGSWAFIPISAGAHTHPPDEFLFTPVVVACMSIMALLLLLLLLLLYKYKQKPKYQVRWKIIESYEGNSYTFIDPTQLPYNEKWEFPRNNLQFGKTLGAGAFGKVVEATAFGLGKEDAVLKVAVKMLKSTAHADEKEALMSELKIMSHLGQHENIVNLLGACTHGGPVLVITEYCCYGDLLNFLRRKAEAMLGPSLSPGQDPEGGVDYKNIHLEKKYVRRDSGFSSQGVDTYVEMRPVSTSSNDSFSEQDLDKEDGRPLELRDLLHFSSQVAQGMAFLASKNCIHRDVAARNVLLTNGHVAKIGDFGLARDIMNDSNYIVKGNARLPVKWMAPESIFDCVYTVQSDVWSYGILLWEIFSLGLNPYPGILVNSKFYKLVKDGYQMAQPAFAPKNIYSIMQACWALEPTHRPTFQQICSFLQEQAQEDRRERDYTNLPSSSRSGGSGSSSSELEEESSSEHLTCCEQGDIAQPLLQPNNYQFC
Receptor-type tyrosine-protein kinase FLT3 (Homo sapiens), sequence (P36888 whole entry): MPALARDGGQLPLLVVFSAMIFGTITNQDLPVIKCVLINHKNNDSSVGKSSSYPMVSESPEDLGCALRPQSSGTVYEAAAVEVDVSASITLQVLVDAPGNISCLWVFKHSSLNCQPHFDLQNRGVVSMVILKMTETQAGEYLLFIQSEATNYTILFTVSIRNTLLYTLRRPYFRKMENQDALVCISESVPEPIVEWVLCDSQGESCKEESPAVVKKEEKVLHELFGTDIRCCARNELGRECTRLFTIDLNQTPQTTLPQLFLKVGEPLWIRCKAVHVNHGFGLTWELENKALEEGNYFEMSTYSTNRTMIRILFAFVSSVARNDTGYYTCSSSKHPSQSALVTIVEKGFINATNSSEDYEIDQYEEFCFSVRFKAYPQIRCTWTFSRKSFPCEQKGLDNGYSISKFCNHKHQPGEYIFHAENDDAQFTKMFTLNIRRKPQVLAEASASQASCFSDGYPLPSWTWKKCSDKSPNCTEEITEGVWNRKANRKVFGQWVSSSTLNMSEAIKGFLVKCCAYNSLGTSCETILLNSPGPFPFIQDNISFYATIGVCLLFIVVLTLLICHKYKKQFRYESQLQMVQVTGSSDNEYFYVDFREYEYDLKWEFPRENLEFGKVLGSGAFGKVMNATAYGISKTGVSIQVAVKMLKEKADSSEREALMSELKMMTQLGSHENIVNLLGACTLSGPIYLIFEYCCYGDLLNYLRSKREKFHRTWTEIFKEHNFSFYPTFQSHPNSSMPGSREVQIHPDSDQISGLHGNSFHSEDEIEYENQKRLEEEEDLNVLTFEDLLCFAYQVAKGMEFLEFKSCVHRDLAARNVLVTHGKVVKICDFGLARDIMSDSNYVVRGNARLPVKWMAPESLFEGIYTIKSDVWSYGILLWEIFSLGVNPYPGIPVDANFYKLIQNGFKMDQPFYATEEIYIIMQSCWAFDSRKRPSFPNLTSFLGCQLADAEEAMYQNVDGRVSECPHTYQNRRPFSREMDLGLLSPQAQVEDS
Tyrosine-protein kinase Fyn (Homo sapiens), sequence (P06241 2-537 limits assumed): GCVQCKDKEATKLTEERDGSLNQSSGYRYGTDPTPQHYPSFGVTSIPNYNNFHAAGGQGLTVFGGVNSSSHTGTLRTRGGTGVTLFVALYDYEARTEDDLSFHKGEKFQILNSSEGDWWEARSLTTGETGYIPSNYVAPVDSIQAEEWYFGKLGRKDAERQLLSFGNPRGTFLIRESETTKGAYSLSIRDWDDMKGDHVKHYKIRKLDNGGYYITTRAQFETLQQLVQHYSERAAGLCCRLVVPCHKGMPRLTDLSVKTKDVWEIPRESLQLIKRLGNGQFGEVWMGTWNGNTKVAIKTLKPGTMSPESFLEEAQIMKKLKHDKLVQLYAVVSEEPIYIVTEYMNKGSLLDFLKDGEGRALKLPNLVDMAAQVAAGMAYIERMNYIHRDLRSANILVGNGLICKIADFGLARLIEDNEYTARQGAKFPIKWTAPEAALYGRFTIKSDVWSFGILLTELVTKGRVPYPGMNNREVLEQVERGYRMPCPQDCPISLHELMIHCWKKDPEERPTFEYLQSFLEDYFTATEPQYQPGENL

IC50 [4] | Compound | IC50 [1] | IC50 [2] | IC50 [3] | also measured
0.0303 µM | Cc1cccc(C)c1NC(=O)Nc1ccc(Oc2ccnc3cc4c(cc23)C(C)(C)C(=O)N4)c(F)c1 | 3.75 µM | 4.07 µM | 10.3 µM | –
0.0252 µM | CC1(C)C(=O)Nc2cc3nccc(Oc4ccc(NC(=O)Nc5cccc(F)c5)cc4F)c3cc21 | 5.64 µM | 7.71 µM | 15.5 µM | –
0.0221 µM | CC1(C)C(=O)Nc2cc3nccc(Oc4ccc(NC(=O)Nc5cccc(F)c5)cc4Cl)c3cc21 | 6.49 µM | 4.38 µM | 7.35 µM | –
0.0521 µM | Cc1cccc(C)c1NC(=O)Nc1ccc(Oc2ccnc3cc4c(cc23)C(C)(C)C(=O)N4)cc1 | 10.3 µM | 10.5 µM | 20.3 µM | –
0.0585 µM | Cc1cc(NC(=O)Nc2ccc(Oc3ccnc4cc5c(cc34)C(C)(C)C(=O)N5)cc2)no1 | 10.1 µM | 6.47 µM | 31.7 µM | –
0.0373 µM | CC1(C)C(=O)Nc2cc3nccc(Oc4ccc(NC(=O)Nc5cccc(F)c5)cc4)c3cc21 | 10.6 µM | 5.46 µM | 12 µM | –
0.0147 µM | CC1(C)C(=O)Nc2cc3nccc(Oc4ccc(NC(=O)Nc5ccc(F)c(C(F)(F)F)c5)cc4)c3cc21 | 4.23 µM | 3.2 µM | 9.56 µM | –
0.0285 µM | CNC(=O)c1cc(Oc2ccc(NC(=O)Nc3ccc(Cl)c(C(F)(F)F)c3)cc2)ccn1 [SORAFENIB] | 6.78 µM | 5.23 µM | 12.7 µM | –
0.0272 µM | Cc1cc(NC(=O)Nc2ccc(Oc3ccnc4cc5c(cc34)C(C)(C)C(=O)N5)c(F)c2)no1 | 4.18 µM | 5.03 µM | 12 µM | –
0.0187 µM | Cc1cc(NC(=O)Nc2ccc(Oc3ccnc4cc5c(cc34)C(C)(C)C(=O)N5)c(Cl)c2)no1 | 5.86 µM | 5.76 µM | 8.46 µM | –
0.0281 µM | Cc1cccc(C)c1NC(=O)Nc1ccc(Oc2ccnc3cc4c(cc23)C(C)(C)C(=O)N4)c(Cl)c1 | 4.39 µM | 3.85 µM | 11.2 µM | –
0.0159 µM | CC1(C)C(=O)Nc2cc3nccc(Oc4ccc(NC(=O)Nc5ccc(F)c(C(F)(F)F)c5)cc4F)c3cc21 | 2.85 µM | 2.16 µM | 8.09 µM | –
0.0087 µM | CC1(C)C(=O)Nc2cc3nccc(Oc4ccc(NC(=O)Nc5ccc(F)c(C(F)(F)F)c5)cc4Cl)c3cc21 | 1.1 µM | 0.916 µM | 6.36 µM | inhibition [5]: 1.5%; inhibition [6]: 18.7%; inhibition [7]: 16.5%; inhibition [8]: 26.2%; inhibition [9]: 34.1%; inhibition [10]: 15%; inhibition [11]: 22.3%; inhibition [12]: 1.4%; inhibition [13]: 4.9%; inhibition [14]: 1.3%; inhibition [15]: 0.3%; inhibition [16]: 3.6%; inhibition [17]: 0.2%; inhibition [18]: 4.7%; inhibition [19]: 20.2%; inhibition [20]: 0.6%; inhibition [21]: 46.9%; inhibition [22]: 15.3%; inhibition [23]: 7.8%; inhibition [24]: 94.6%
